Laboratory results from patent publication US11267811B2, “Small molecule inhibitors of galectin-3” (BRISTOL-MYERS SQUIBB COMPANY, priority 2017, dated 2022).
Read-outs that look alike come from different tables or passages of the source.

Biological target: His-tagged recombinant human Gal-3 (hGal-3) (Homo sapiens (Human), UniProt P17931)
Experiment: Gal-3 HTRF assay (His-tagged hGal-3 binding to B-ASF);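 also: compounds preincubated 30 min with hGal-3, then 1 h with B-ASF, detection via terbium anti-His antibody and streptavidin d2. Control with B-ASF counts as full signal, omitting B-ASF as background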
[1] = HTRF, hGal-3 15 nM, B-ASF 15 nM, read-out: hGal-3 IC50

Chain of His-tagged recombinant human Gal-3 (hGal-3) (P17931 whole entry): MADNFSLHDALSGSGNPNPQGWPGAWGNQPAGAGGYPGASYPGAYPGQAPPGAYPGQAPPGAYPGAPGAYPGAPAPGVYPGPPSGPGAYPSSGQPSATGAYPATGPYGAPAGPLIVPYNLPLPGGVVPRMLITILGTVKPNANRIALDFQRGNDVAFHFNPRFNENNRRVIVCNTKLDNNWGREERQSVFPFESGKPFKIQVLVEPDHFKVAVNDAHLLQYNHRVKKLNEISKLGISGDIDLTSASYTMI

Row | IC50 [1] | IC50 (read-out: hGal IC50) | SMILES
1 | 33 nM | – | Cc1nc([C@@H]2O[C@H](CO)[C@H](O)[C@H](n3cc(-c4ccc(Cl)c(Cl)c4)nn3)[C@H]2O)n(-c2cc(Cl)ccc2C(F)(F)F)n1 [Example A3, (2S,3R,4R,5R,6R)-2-(1-(5-Chloro-2-(trifluoromethyl)phenyl)-3-methyl-1H-1,2,4-triazol-5-yl)-4-(4-(3,4-dichlorophenyl)-1H-1,2,3-triazol-1-yl)-6-(hydroxymethyl)tetrahydro-2H-pyran-3,5-diol]
2 | 20 nM | – | CO[C@@H]1[C@@H](n2cc(-c3cc(F)c(Cl)c(F)c3)nn2)[C@@H](O)[C@@H](CO)O[C@H]1c1nc(C)nn1-c1ccc2ncsc2c1 [Example A5, (2R,3R,4S,5R,6S)-6-(1-(Benzo[d]thiazol-6-yl)-3-methyl-1H-1,2,4-triazol-5-yl)-4-(4-(4-chloro-3,5-difluorophenyl)-1H-1,2,3-triazol-1-yl)-2-(hydroxymethyl)-5-methoxytetrahydro-2H-pyran-3-ol]
3 | – | 505 nM | Cc1nc([C@@H]2O[C@H](CO)[C@H](O)[C@H](n3cc(-c4cc(F)c(F)c(F)c4)nn3)[C@H]2O)n(-c2ccc3nc(C(F)(F)F)sc3c2)n1 [Example A8]
4 | – | 837 nM | Cc1nc([C@@H]2O[C@H](CO)[C@H](O)[C@H](n3cc(-c4ccc(Cl)c(F)c4)nn3)[C@H]2O)n(-c2ccc3nc(C(F)(F)F)sc3c2)n1 [Example A9]
5 | – | 46 nM | Cc1nc([C@@H]2O[C@H](CO)[C@H](O)[C@H](n3cc(-c4ccc(Br)c(F)c4)nn3)[C@H]2O)n(-c2cc(Cl)cc3cccnc23)n1 [Example A12]
6 | – | 22 nM | Cc1nc([C@@H]2O[C@H](CO)[C@H](O)[C@H](n3cc(-c4cc(F)c(Cl)c(F)c4)nn3)[C@H]2O)n(-c2cc(Cl)ccc2Br)n1 [Example A13]
7 | – | 40 nM | Cc1nc([C@@H]2O[C@H](CO)[C@H](O)[C@H](n3cc(-c4ccc(Cl)c(F)c4)nn3)[C@H]2O)n(-c2cc(Cl)ccc2Br)n1 [Example A15]
8 | – | 82 nM | Cc1nc([C@@H]2O[C@H](CO)[C@H](O)[C@H](n3cc(-c4ccc(Br)c(F)c4)nn3)[C@H]2O)n(-c2cc(Cl)cc3ncccc23)n1 [Example A17]
9 | – | 31 nM | Cc1nc([C@@H]2O[C@H](CO)[C@H](O)[C@H](n3cc(-c4ccc(Cl)c(F)c4)nn3)[C@H]2O)n(-c2cc(Cl)ccc2OC(F)(F)F)n1 [Example A20]
10 | – | 22 nM | Cc1nc([C@@H]2O[C@H](CO)[C@H](O)[C@H](n3cc(-c4ccc(Br)c(F)c4)nn3)[C@H]2O)n(-c2ccc3ncsc3c2)n1 [Example A22]
11 | – | 34 nM | Cc1nc([C@@H]2O[C@H](CO)[C@H](O)[C@H](n3cc(-c4cc(F)c(Cl)c(Cl)c4)nn3)[C@H]2O)n(-c2ccc3ncsc3c2)n1 [Example A24]
12 | – | 45 nM | Cc1nc([C@@H]2O[C@H](CO)[C@H](O)[C@H](n3cc(-c4cc(F)c(Cl)c(Cl)c4)nn3)[C@H]2O)n(-c2ccc3nc(C)sc3c2)n1 [Example A25]
13 | – | 27 nM | Cc1nc([C@@H]2O[C@H](CO)[C@H](O)[C@H](n3cc(-c4cc(F)c(Br)c(F)c4)nn3)[C@H]2O)n(-c2ccc3ncsc3c2)n1 [Example A29]
14 | – | 22 nM | Cc1nc([C@@H]2O[C@H](CO)[C@H](O)[C@H](n3cc(-c4ccc(Br)c(F)c4)nn3)[C@H]2O)n(-c2cc3sc(C)nc3cc2C(F)(F)F)n1 [Example A31]
15 | – | 41 nM | Cc1nc([C@@H]2O[C@H](CO)[C@H](O)[C@H](n3cc(-c4cc(F)c(Br)c(F)c4)nn3)[C@H]2O)n(-c2ccc3nc(C)sc3c2)n1 [Example A32]
16 | – | 53 nM | Cc1nc([C@@H]2O[C@H](CO)[C@H](O)[C@H](n3cc(-c4cc(F)c(Cl)c(F)c4)nn3)[C@H]2O)n(-c2ccc3nc(C)sc3c2)n1 [Example A36]
17 | – | 72 nM | Cc1nc([C@@H]2O[C@H](CO)[C@H](O)[C@H](n3cc(-c4ccc(Br)c(F)c4)nn3)[C@H]2O)n(-c2cc(Cl)ccc2C2CC2)n1 [Example A38]
18 | – | 161 nM | Cc1nc([C@@H]2O[C@H](CO)[C@H](O)[C@H](n3cc(-c4ccc(Br)c(F)c4)nn3)[C@H]2O)n(-c2cc(Cl)cc3ccncc23)n1 [Example A39]
19 | – | 59 nM | Cc1nc([C@@H]2O[C@H](CO)[C@H](O)[C@H](n3cc(-c4ccc(Cl)c(F)c4)nn3)[C@H]2O)n(-c2cc(Cl)ccc2C2CC2)n1 [Example A41]

Second part, the molecule before the results:

Row | SMILES | IC50 [1] | IC50 (read-out: hGal IC50)
20 | Cc1nc2ccc(-n3nc(C(F)(F)F)nc3[C@@H]3O[C@H](CO)[C@H](O)[C@H](n4cc(-c5cc(F)c(F)c(F)c5)nn4)[C@H]3O)cc2s1 [Example A4, (2R,3R,4R,5R,6S)-2-(Hydroxymethyl)-6-(1-(2-methylbenzo[d]thiazol-6-yl)-3-(trifluoromethyl)-1H-1,2,4-triazol-5-yl)-4-(4-(3,4,5-trifluorophenyl)-1H-1,2,3-triazol-1-yl)tetrahydro-2H-pyran-3,5-diol] | 58 nM | –
21 | OC[C@H]1O[C@@H](c2ncnn2-c2cc(Cl)ccc2C(F)(F)F)[C@H](O)[C@@H](n2cc(-c3cc(F)c(F)c(F)c3)nn2)[C@H]1O [Example A7] | – | 27 nM
22 | Cc1nc([C@@H]2O[C@H](CO)[C@H](O)[C@H](n3cc(-c4cc(F)c(Cl)c(F)c4)nn3)[C@H]2O)n(-c2cc(Cl)cnc2C(F)(F)F)n1 [Example A10] | – | 29 nM
23 | Cc1nc([C@@H]2O[C@H](CO)[C@H](O)[C@H](n3cc(-c4cc(F)c(Cl)c(F)c4)nn3)[C@H]2O)n(-c2cc(Cl)cc3cccnc23)n1 [Example A11] | – | 17 nM
24 | Cc1nc([C@@H]2O[C@H](CO)[C@H](O)[C@H](n3cc(-c4cc(F)c(Br)c(F)c4)nn3)[C@H]2O)n(-c2cc(Cl)cc3cccnc23)n1 [Example A14] | – | 24 nM
25 | Cc1nc([C@@H]2O[C@H](CO)[C@H](O)[C@H](n3cc(-c4cc(F)c(Cl)c(F)c4)nn3)[C@H]2O)n(-c2cc(Cl)cc3ncccc23)n1 [Example A16] | – | 51 nM
26 | Cc1nc([C@@H]2O[C@H](CO)[C@H](O)[C@H](n3cc(-c4cc(F)c(Cl)c(Cl)c4)nn3)[C@H]2O)n(-c2cc(Cl)ccc2OC(F)(F)F)n1 [Example A26] | – | 36 nM
27 | Cc1nc([C@@H]2O[C@H](CO)[C@H](O)[C@H](n3cc(-c4cc(F)c(Cl)c(F)c4)nn3)[C@H]2O)n(-c2cc3sc(C)nc3cc2C(F)(F)F)n1 [Example A30] | – | 17 nM
28 | Cc1nc([C@@H]2O[C@H](CO)[C@H](O)[C@H](n3cc(-c4cc(F)c(Br)c(F)c4)nn3)[C@H]2O)n(-c2cc3sc(C)nc3cc2C(F)(F)F)n1 [Example A33] | – | 103 nM
29 | Cc1nc([C@@H]2O[C@H](CO)[C@H](O)[C@H](n3cc(-c4cc(F)c(Cl)c(F)c4)nn3)[C@H]2O)n(-c2cc(Cl)ccc2C2CC2)n1 [Example A34] | – | 46 nM
30 | Cc1nc([C@@H]2O[C@H](CO)[C@H](O)[C@H](n3cc(-c4cc(F)c(Br)c(F)c4)nn3)[C@H]2O)n(-c2cc(Cl)ccc2C2CC2)n1 [Example A35] | – | 151 nM
31 | Cc1nc([C@@H]2O[C@H](CO)[C@H](O)[C@H](n3cc(-c4cc(F)c(Cl)c(F)c4)nn3)[C@H]2O)n(-c2cc(Cl)cc3ccncc23)n1 [Example A37] | – | 51 nM
32 | Cc1nc([C@@H]2O[C@H](CO)[C@H](O)[C@H](n3cc(-c4cc(F)c(Cl)c(F)c4)nn3)[C@H]2O)n(-c2cc(CC(F)(F)F)ccc2Cl)n1 [Example A40] | – | 126 nM
33 | Cc1nc([C@@H]2O[C@H](CO)[C@H](O)[C@H](n3cc(-c4cc(F)c(Cl)c(F)c4)nn3)[C@H]2O)n(-c2cc(Cl)ccc2C(C)(C)C)n1 [Example A42] | – | 11 nM
34 | Cc1nc([C@@H]2O[C@H](CO)[C@H](O)[C@H](n3cc(-c4cc(F)c(Cl)c(F)c4)nn3)[C@H]2O)n(-c2cc(C(F)F)ccc2Cl)n1 [Example A43] | – | 50 nM
